Earlier results, collected in PubChem BioAssay AID1259409 (Chemical Carcinogenesis Research Information System (CCRIS), 2018).

Tested on: rodent chemically induced tumor inhibition, incidence and multiplicity
Experiment: CCRIS tumor inhibitor studies
Conditions: Route [Inhibitor]: ORAL, Promoter: NONE USED; for outcome: Target Tissue: Type of Lesion: GALLBLADDER: CARCINOMA IN SITU

For O=[Se](O)O, the “tumour outcome (control, treated, inhibition, significance)” value (Carcinogen: 1,2-DIMETHYLHYDRAZINE, 540-73-8, Dose [Inhibitor]: 0, 10 MG/L IN DRINKING WATER FOR DURATION OF STUDY BEGINNING 7 D PRIOR TO CARCINOGEN TREATMENT (STUDY DURATION: 8 MO), Species: RAT, Strain/Sex: BD6/MALE, Target Tissue: Type of Lesion: INTESTINE: TUMOR, Dose [Carcinogen]: 20 MG/KG BW 1/WK FOR 20 WK) is given as 100%, 100%, 0%, not significant, the “tumour outcome (control, treated, inhibition, significance)” value (Carcinogen: 1,2-DIMETHYLHYDRAZINE, 540-73-8, Dose [Inhibitor]: 4 PPM IN DRINKING WATER DAILY FOR 10-20 WK STARTING AFTER COMPLETION OF CARCINOGEN TREATMENT AND CONTINUING FOR DURATION, Species: RAT, Strain/Sex: SPRAGUE-DAWLEY/MALE, Target Tissue: Type of Lesion: COLON: ADENOCARCINOMA, VILLOUS ADENOMA, Dose [Carcinogen]: 20 MG/KG BW 1/WK FOR 20 WK) is given as 29/32 (91%), 63/69 (91%), 0%, not calculated and the “tumour outcome (control, treated, inhibition, significance)” value (Carcinogen: 1,2-DIMETHYLHYDRAZINE, 540-73-8, Dose [Inhibitor]: 4 PPM IN DRINKING WATER DAILY FOR 20 WK STARTING SIMULTANEOUSLY WITH CARCINOGEN TREATMENT AND CONTINUING THROUGH END OF, Species: RAT, Strain/Sex: SPRAGUE-DAWLEY/MALE, Target Tissue: Type of Lesion: COLON: ADENOCARCINOMA, Dose [Carcinogen]: 20 MG/KG BW 1/WK FOR 20 WK) is given as 13/15 (87%), 6/15 (40%), 54%, p 0.025. The “tumour outcome (control, treated, inhibition, significance)” value (Carcinogen: 1,2-DIMETHYLHYDRAZINE, 540-73-8, Dose [Inhibitor]: 4 PPM IN DRINKING WATER DAILY STARTING 2 WK PRIOR TO START OF CARCINOGEN TREATMENT AND CONTINUING FOR DURATION OF STUDY, Species: RAT, Strain/Sex: SPRAGUE-DAWLEY/MALE, Target Tissue: Type of Lesion: COLON: ADENOCARCINOMA, Dose [Carcinogen]: 20 MG/KG BW IN BACTERIOSTATIC SALINE 1/WK FOR 20 WK) was 9/14 (64%), 4/13 (31%), 52%, not calculated, the “tumour outcome (control, treated, inhibition, significance)” value (Carcinogen: 2-(ACETYLAMINO)FLUORENE, 6292-55-3, Dose [Inhibitor]: 4 PPM IN DRINKING WATER DAILY STARTING 1 WK PRIOR TO CARCINOGEN TREATMENT AND CONTINUING FOR DURATION OF STUDY (STUDY DU, Species: RAT, Strain/Sex: SPRAGUE-DAWLEY/MALE, Target Tissue: Type of Lesion: LIVER: CARCINOMA, Dose [Carcinogen]: 0.03% IN DIET DAILY FOR 14 WK) was 9/13 (69%), 4/14 (29%), 58%, not calculated and the “tumour outcome (control, treated, inhibition, significance)” value (Carcinogen: 3'-METHYL-4-DIMETHYLAMINOAZOBENZENE, 55-80-1, Dose [Inhibitor]: 6 PPM IN DRINKING WATER DAILY STARTING 1 WK PRIOR TO START OF CARCINOGEN TREATMENT AND CONTINUING FOR DURATION OF STUDY, Species: RAT, Strain/Sex: SPRAGUE-DAWLEY/MALE, Target Tissue: Type of Lesion: LIVER: ADENOCARCINOMA, Dose [Carcinogen]: 0.05% IN DIET DAILY FOR 8 WK) was 11/12 (92%), 7/15 (46%), 50%, p<0.01. For the same molecule, the outcome (Carcinogen: 3-METHYLCHOLANTHRENE, 56-49-5, Dose [Inhibitor]: 0, 0.5 PPM IN DRINKING WATER FOR 24 WK BEGINNING 4 WK PRIOR TO CARCINOGEN TREATMENT (STUDY DURATION: 24 WK), Species: HAMSTER, Strain/Sex: SYRIAN/FEMALE, Dose [Carcinogen]: 3 MG IN BEESWAX PELLET INSERTED INTO GALLBLADDER AT WK 4 OF STUDY) was 0/24 (0%), 3/20 (15%), -100%, not significant, the “tumour outcome (control, treated, inhibition, significance)” value (Carcinogen: 3-METHYLCHOLANTHRENE, 56-49-5, Dose [Inhibitor]: 0, 0.5 PPM IN DRINKING WATER FOR 24 WK BEGINNING 4 WK PRIOR TO CARCINOGEN TREATMENT (STUDY DURATION: 24 WK), Species: HAMSTER, Strain/Sex: SYRIAN/FEMALE, Target Tissue: Type of Lesion: GALLBLADDER: INVASIVE ADENOCARCINOMA, Dose [Carcinogen]: 3 MG IN BEESWAX PELLET INSERTED INTO GALLBLADDER AT WK 4 OF STUDY) was 21/24 (88%), 11/20 (55%), 38%, p<0.05 and the outcome (Carcinogen: 3-METHYLCHOLANTHRENE, 56-49-5, Dose [Inhibitor]: 0, 2 PPM IN DRINKING WATER FOR 24 WK BEGINNING 4 WK PRIOR TO CARCINOGEN TREATMENT (STUDY DURATION: 24 WK), Species: HAMSTER, Strain/Sex: SYRIAN/FEMALE, Dose [Carcinogen]: 3 MG IN BEESWAX PELLET INSERTED INTO GALLBLADDER AT WK 4 OF STUDY) was 0/24 (0%), 7/21 (33%), -100%, p<0.05. The “tumour outcome (control, treated, inhibition, significance)” value (Carcinogen: 3-METHYLCHOLANTHRENE, 56-49-5, Dose [Inhibitor]: 0, 2 PPM IN DRINKING WATER FOR 24 WK BEGINNING 4 WK PRIOR TO CARCINOGEN TREATMENT (STUDY DURATION: 24 WK), Species: HAMSTER, Strain/Sex: SYRIAN/FEMALE, Target Tissue: Type of Lesion: GALLBLADDER: INVASIVE ADENOCARCINOMA, Dose [Carcinogen]: 3 MG IN BEESWAX PELLET INSERTED INTO GALLBLADDER AT WK 4 OF STUDY) was 21/24 (88%), 10/21 (48%), 45%, p<0.05, the “tumour outcome (control, treated, inhibition, significance)” value (Carcinogen: 3-METHYLCHOLANTHRENE, 56-49-5, Dose [Inhibitor]: 0, 2 UG/G/BW 2/WK FOR 20 WK (STUDY DURATION: 20 WK), Species: MOUSE, Strain/Sex: ICRC/MALE, Target Tissue: Type of Lesion: SKIN: PAPILLOMA, Dose [Carcinogen]: 50 UG IN 0.2 ML ACETONE 2/WK) was 100%, 100%, 0%, not significant and the outcome (Carcinogen: 3-METHYLCHOLANTHRENE, 56-49-5, Dose [Inhibitor]: 0, 4 PPM IN DRINKING WATER FOR 24 WK BEGINNING 4 WK PRIOR TO CARCINOGEN TREATMENT (STUDY DURATION: 24 WK), Species: HAMSTER, Strain/Sex: SYRIAN/FEMALE, Dose [Carcinogen]: 3 MG IN BEESWAX PELLET INSERTED INTO GALLBLADDER AT WK 4 OF STUDY) was 0/24 (0%), 5/22 (23%), -100%, p<0.05. For the same molecule, the “tumour outcome (control, treated, inhibition, significance)” value (Carcinogen: 3-METHYLCHOLANTHRENE, 56-49-5, Dose [Inhibitor]: 0, 4 PPM IN DRINKING WATER FOR 24 WK BEGINNING 4 WK PRIOR TO CARCINOGEN TREATMENT (STUDY DURATION: 24 WK), Species: HAMSTER, Strain/Sex: SYRIAN/FEMALE, Target Tissue: Type of Lesion: GALLBLADDER: INVASIVE ADENOCARCINOMA, Dose [Carcinogen]: 3 MG IN BEESWAX PELLET INSERTED INTO GALLBLADDER AT WK 4 OF STUDY) was 21/24 (88%), 12/22 (55%), 38%, p<0.05, the “tumour outcome (control, treated, inhibition, significance)” value (Carcinogen: 4-(METHYLNITROSAMINO)-1-(3-PYRIDYL)-1-BUTANONE, 64091-91-4, Dose [Inhibitor]: 0, 0.0022 G/KG DIET (0.00008 UMOL/D) BEGINNING 2 WK PRIOR TO CARCINOGEN DOSE AND CONTINUING FOR DURATION OF STUDY (STUDY, Species: MOUSE, Strain/Sex: STRAIN-A/FEMALE, Target Tissue: Type of Lesion: LUNG: ADENOMA, Dose [Carcinogen]: 9.2, 9.1 MG/MOUSE IN DRINKING WATER DURING 7 WK) was 28/28 (100%), 24/25 (96%), 4%, not significant and the “tumour outcome (control, treated, inhibition, significance)” value (Carcinogen: 4-(METHYLNITROSAMINO)-1-(3-PYRIDYL)-1-BUTANONE, 64091-91-4, Dose [Inhibitor]: 0, 5 PPM IN DIET BEGINNING 1 WK PRIOR TO CARCINOGEN TREATMENT AND CONTINUING FOR 16 WK POST CARCINOGEN TREATMENT (STUDY, Species: MOUSE, Strain/Sex: STRAIN-A/FEMALE, Target Tissue: Type of Lesion: LUNG: ADENOMA, Dose [Carcinogen]: 10 UMOL IN 0.1 ML SALINE) was 100%, 100%, 0%, not significant.
